Experimental data from patent US9757358B2 (priority 2010, dated 2017).

Legend:
opioid analgesia = conditions: Chichenkov et al. 1985; cited from earlier work
[1] = system: post-operative pain in rats (mechanical allodynia); conditions: rat, in vivo
[2] = system: post-operative pain in rats (thermal hyperalgesia); experiment: Thermal hyperalgesia (Ugo Basile plantar test) after plantar incision, post-operative pain in rats; assay type: in vivo, rat; conditions: given 3.5 h after surgery
sigma 2 (σ-2) site = sigma 2 (σ-2) site (Homo sapiens, UniProt Q5BJF2); conditions: cited from earlier work
morphine dependence = conditions: cited from earlier work

Chain of sigma 2 (σ-2) site (Q5BJF2 whole entry): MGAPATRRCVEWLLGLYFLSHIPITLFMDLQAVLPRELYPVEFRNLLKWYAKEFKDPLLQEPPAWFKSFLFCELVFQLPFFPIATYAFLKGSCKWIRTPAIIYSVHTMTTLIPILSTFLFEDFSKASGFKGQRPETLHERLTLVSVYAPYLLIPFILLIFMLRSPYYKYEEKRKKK

O=C(CCCN1CCC(O)(c2ccc(Cl)cc2)CC1)c1ccc(F)cc1 [Haloperidol, haloperidol]
effect on activity of opioids and opiates (morphine, DADL, bremazocine) (opioid analgesia): potentiates the activity of different opioids and opiates

Cc1cc(OCCN2CCOCC2)nn1-c1ccc2ccccc2c1 [compound 63, 4-{2-[5-Methyl-1-(naphthalen-2-yl)-1H-pyrazol-3-yloxy]ethyl}morpholine]
effect on buprenorphine analgesia [1]: enhances buprenorphine analgesia | effect on morphine analgesia [1]: enhances morphine analgesia | effect on oxycodone analgesia [1]: enhances oxycodone analgesia | effect on tapentadol analgesia [1]: enhances tapentadol analgesia | effect on tramadol analgesia [1]: enhances tramadol analgesia | effect on tramadol analgesia ([2]; compound 63 5, 10, 20, 40 mg/kg + tramadol 1.25 mg/kg): enhances tramadol analgesia | effect on morphine analgesia ([2]; compound 63 10, 20, 40, 80 mg/kg + morphine 0.625 mg/kg): enhances morphine analgesia

SKF 10047
affinity for the sigma 2 site (sigma 2 (σ-2) site): micromolar affinity

dehydroepiandrosterone sulfate [DHEA]
effect on development of morphine dependence (morphine dependence; Noda et al. 2001): some capacity to attenuate the development of morphine dependence

COc1ccc(CCN2CCN(CCCc3ccccc3)CC2)cc1OC [SA4503]
effect on addiction to morphine (morphine dependence; morphine-induced place preference, Nomura et al. 1999): modulatory effect on addiction to morphine
